Experimental findings from ChEMBL document CHEMBL5360552, “Potential RNA-dependent RNA polymerase (RdRp) inhibitors as prospective drug candidates for SARS-CoV-2” (Eur J Med Chem, 2023) are described below.

Assay [1] deals with SARS-CoV-2. The assay can be described thus: Antiviral activity against SARS-CoV-2 infected in african green monkey Vero E6 cells pretreated for 1 hrs followed by viral infection for 2 hrs and replaced with fresh medium for 48 hrs post infection by qRT-PCR. It counts as functional, organism-based. The following applies: Severe acute respiratory syndrome coronavirus 2, Vero C1008.

Assay [2] relates to SARS-CoV-2. The assay can be described thus: Antiviral activity against SARS-CoV-2 omicron variant infected in human Calu-3 cells of organoid assessed as intracellular viral RNA level measured after 48 hrs by qRT-PCR analysis. It counts as functional, organism-based. The following applies: Severe acute respiratory syndrome coronavirus 2, Calu-3, 48 h.

Consider `CCC(CC)COC(=O)[C@H](C)N[P@](=O)(OC[C@H]1O[C@@](C#N)(c2ccc3c(N)ncnn23)[C@H](O)[C@@H]1O)Oc1ccccc1`, for which the EC50 in assay [1] amounted to 770 nM. On to `CC(C)C(=O)OC[C@H]1O[C@@H](n2cc/c(=N\O)[nH]c2=O)[C@H](O)[C@@H]1O` [MOLNUPIRAVIR], for which the IC50 in assay [2] was 756 nM.
